Source: patent US12415794B2 (Edgewise Therapeutics, Inc., priority 2018, dated 2025)

Tests used:
[1] = molecular target: skeletal myofibrils (myosin ATPase); test: Skeletal Myofibril ATPase Assay; type: biochemical; details: Table 4C
Method in brief: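 Skeletal myofibril ATPase measured by PK-LDH coupled NADH depletion, absorbance 340 nm read every 1.5-2 min over 45 min. Max−min rate normalized to 1% DMSO vehicle as 100%; IC50 from four-parameter logistic fit with bottom ≥0. Cardiac myofibrils used as counter-screen.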

[2] = molecular target: T1, cardiac myofibrils (myosin ATPase); test: Cardiac Myofibril ATPase Assay (counter screen); type: biochemical; details: myofibrils 1.0 mg/mL, KCl omitted, Table 5C
T1 construct: frozen myofibril pellets obtained from cardiac tissue; from tissue
T1 sequence (P12883 whole entry): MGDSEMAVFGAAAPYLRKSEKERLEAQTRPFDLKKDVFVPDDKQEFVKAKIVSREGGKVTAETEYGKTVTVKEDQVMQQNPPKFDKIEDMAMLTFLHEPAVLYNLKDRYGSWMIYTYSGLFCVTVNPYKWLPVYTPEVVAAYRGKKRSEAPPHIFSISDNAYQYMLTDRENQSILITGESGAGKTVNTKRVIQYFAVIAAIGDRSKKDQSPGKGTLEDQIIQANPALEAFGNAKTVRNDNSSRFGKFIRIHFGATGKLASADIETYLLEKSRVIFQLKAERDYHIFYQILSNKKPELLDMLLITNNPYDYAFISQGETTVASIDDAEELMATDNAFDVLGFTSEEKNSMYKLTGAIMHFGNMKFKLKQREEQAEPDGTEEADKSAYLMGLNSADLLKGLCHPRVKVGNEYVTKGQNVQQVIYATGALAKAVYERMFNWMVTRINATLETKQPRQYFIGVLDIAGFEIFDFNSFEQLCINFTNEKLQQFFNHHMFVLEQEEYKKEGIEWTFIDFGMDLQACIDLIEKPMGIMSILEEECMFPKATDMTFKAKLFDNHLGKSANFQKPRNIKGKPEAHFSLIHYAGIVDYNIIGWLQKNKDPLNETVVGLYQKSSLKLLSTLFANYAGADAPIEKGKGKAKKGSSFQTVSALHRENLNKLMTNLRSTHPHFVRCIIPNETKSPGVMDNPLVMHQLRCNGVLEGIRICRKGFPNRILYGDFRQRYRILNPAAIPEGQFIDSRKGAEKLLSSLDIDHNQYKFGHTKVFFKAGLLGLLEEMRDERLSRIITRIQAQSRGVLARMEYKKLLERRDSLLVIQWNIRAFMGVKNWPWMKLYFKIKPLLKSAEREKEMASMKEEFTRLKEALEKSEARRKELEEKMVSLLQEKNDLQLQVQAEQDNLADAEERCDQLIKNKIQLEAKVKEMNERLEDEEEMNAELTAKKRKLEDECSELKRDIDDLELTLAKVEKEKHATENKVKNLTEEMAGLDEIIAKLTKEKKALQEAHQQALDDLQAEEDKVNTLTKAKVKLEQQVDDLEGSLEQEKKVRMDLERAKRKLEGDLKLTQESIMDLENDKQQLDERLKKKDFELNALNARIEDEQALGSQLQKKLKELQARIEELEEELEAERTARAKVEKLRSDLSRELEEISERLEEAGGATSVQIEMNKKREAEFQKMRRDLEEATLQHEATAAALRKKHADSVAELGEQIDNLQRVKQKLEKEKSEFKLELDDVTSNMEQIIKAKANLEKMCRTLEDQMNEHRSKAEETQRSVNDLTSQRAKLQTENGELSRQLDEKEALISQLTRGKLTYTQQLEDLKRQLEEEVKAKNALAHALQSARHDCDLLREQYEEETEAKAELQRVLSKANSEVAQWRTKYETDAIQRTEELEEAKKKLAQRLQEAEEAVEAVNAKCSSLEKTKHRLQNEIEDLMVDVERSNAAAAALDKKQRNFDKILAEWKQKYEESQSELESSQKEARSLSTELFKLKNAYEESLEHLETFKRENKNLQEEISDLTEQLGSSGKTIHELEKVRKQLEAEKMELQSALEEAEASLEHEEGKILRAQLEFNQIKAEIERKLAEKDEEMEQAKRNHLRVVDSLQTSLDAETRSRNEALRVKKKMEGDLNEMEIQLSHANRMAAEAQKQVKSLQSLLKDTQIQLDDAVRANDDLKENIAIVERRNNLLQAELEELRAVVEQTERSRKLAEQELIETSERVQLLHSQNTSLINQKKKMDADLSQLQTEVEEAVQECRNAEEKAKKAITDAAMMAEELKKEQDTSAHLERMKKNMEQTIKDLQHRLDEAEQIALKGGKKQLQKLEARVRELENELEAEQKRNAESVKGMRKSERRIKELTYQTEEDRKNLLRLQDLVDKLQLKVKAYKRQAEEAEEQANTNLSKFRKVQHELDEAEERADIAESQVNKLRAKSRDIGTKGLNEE
T1 sequence (P08590 whole entry partner): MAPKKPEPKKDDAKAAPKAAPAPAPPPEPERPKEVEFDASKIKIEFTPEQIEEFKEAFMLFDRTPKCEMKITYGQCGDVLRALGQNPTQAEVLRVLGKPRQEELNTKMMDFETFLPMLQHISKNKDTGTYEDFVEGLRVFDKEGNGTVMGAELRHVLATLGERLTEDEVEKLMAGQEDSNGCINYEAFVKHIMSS
T1 sequence (P10916 whole entry partner): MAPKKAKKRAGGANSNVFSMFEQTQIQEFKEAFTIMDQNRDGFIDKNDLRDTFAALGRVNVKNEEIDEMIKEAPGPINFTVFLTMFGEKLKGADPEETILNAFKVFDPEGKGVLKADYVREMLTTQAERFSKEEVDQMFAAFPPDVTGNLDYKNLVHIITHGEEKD
Method in brief: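 Frozen cardiac myofibrils at 1.0 mg/mL final, KCl omitted, in a PK-LDH coupled ATPase assay; ADP production tracked as NADH loss by absorbance at 340 nm. Inhibition taken as reduced rate relative to vehicle controls, with IC50 derived.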

| Compound | IC50 [1] [µM] | IC50 [2] [µM] |
| --- | --- | --- |
| COc1ccc(-c2ccc(=O)n(CC(=O)NCc3ccccc3OC)n2)cc1 [IIIb-21, N-(2-methoxybenzyl)-2-(3-(4-methoxyphenyl)-6-oxopyridazin-1(6H)-yl)acetamide] | 10 to 100 | > 100 |
| COc1ccc(-c2ccc(=O)n(CC(=O)NC3CC3)n2)cc1 [IIIb-22, N-cyclopropyl-2-(3-(4-methoxyphenyl)-6-oxopyridazin-1(6H)-yl)acetamide] | 10 to 100 | > 100 |
| COc1ccc(-c2ccc(=O)n(CC(=O)NC3CCCC3)n2)cc1 [IIIb-23, N-cyclopentyl-2-(3-(4-methoxyphenyl)-6-oxopyridazin-1(6H)-yl)acetamide] | 10 to 100 | > 100 |
| O=C(Cn1nc(-c2ccc3c(c2)OCCCO3)ccc1=O)NC1CCCCCC1 [IIIb-24, N-cycloheptyl-2-(3-(3,4-dihydro-2H-benzo[b][1,4]dioxepin-7-yl)-6-oxopyridazin-1(6H)-yl)acetamide] | 10 to 100 | > 100 |
| COc1ccc(-c2ccc(=O)n(CC(=O)Nc3cc(OC)ccc3OC)n2)cc1 [IIIb-25, N-(2,5-dimethoxyphenyl)-2-(3-(4-methoxyphenyl)-6-oxopyridazin-1(6H)-yl)acetamide] | 10 to 100 | > 100 |
| C[C@@H](NC(=O)Cn1nc(-c2ccc3c(c2)OCCCO3)ccc1=O)c1ccc(F)cc1 [IIIb-26, (R)-2-(3-(3,4-dihydro-2H-benzo[b][1,4]dioxepin-7-yl)-6-oxopyridazin-1(6H)-yl)-N-(1-(4-fluorophenyl)ethyl)acetamide] | 10 to 100 | > 100 |
| COc1ccc(-c2ccc(=O)n(CC(=O)Nc3ncccc3C)n2)cc1 [IIIb-27, 2-(3-(4-methoxyphenyl)-6-oxopyridazin-1(6H)-yl)-N-(3-methylpyridin-2-yl)acetamide] | 10 to 100 | > 100 |
| COc1ccc(-c2ccc(=O)n(CC(=O)Nc3ccc4c(c3)OCO4)n2)cc1 [IIIb-28, N-(benzo[d][1,3]dioxol-5-yl)-2-(3-(4-methoxyphenyl)-6-oxopyridazin-1(6H)-yl)acetamide] | 10 to 100 | > 100 |
| COc1ccc(-c2ccc(=O)n(CC(=O)NCC(C)C)n2)cc1 [IIIb-29, N-isobutyl-2-(3-(4-methoxyphenyl)-6-oxopyridazin-1(6H)-yl)acetamide] | 10 to 100 | > 100 |
| COc1ccc(-c2ccc(=O)n(CC(=O)NC(C)CCc3ccccc3)n2)cc1 (stereo not shown) [IIIb-30, 2-(3-(4-methoxyphenyl)-6-oxopyridazin-1(6H)-yl)-N-(4-phenylbutan-2-yl)acetamide] | 10 to 100 | 10 to 100 |
| COc1ccc(-c2ccc(=O)n(CC(=O)NCc3ccc(Cl)cc3)n2)cc1 [IIIb-31, N-(4-chlorobenzyl)-2-(3-(4-methoxyphenyl)-6-oxopyridazin-1(6H)-yl)acetamide] | 10 to 100 | > 100 |
| COc1ccc(-c2ccc(=O)n(CC(=O)NCc3cccc(F)c3)n2)cc1 [IIIb-32, N-(3-fluorobenzyl)-2-(3-(4-methoxyphenyl)-6-oxopyridazin-1(6H)-yl)acetamide] | 10 to 100 | > 100 |
| COc1ccc(-c2ccc(=O)n(CC(=O)Nc3ccc4c(c3)OCO4)n2)c(F)c1 [IIIb-33, N-(benzo[d][1,3]dioxol-5-yl)-2-(3-(2-fluoro-4-methoxyphenyl)-6-oxopyridazin-1(6H)-yl)acetamide] | 10 to 100 | > 100 |
| COc1ccc(CNC(=O)Cn2nc(-c3ccc(OC)cc3)ccc2=O)cc1 [IIIb-34, N-(4-methoxybenzyl)-2-(3-(4-methoxyphenyl)-6-oxopyridazin-1(6H)-yl)acetamide] | 10 to 100 | > 100 |
| COc1ccc(-c2ccc(=O)n(CC(=O)Nc3ccc(Cl)cc3Cl)n2)c(F)c1 [IIIb-35, N-(2,4-dichlorophenyl)-2-(3-(2-fluoro-4-methoxyphenyl)-6-oxopyridazin-1(6H)-yl)acetamide] | 10 to 100 | > 100 |
| COc1ccc(-c2ccc(=O)n(CC(=O)NC(C)CCc3ccccc3)n2)c(F)c1 (stereo not shown) [IIIb-36, 2-(3-(2-fluoro-4-methoxyphenyl)-6-oxopyridazin-1(6H)-yl)-N-(4-phenylbutan-2-yl)acetamide] | 10 to 100 | > 100 |
| COc1ccc(-c2ccc(=O)n(CC(=O)NCc3ccco3)n2)cc1 [IIIb-37, N-(furan-2-ylmethyl)-2-(3-(4-methoxyphenyl)-6-oxopyridazin-1(6H)-yl)acetamide] | 10 to 100 | > 100 |
| COc1ccc(-c2ccc(=O)n(CC(=O)NCc3ccccc3F)n2)cc1 [IIIb-38, N-(2-fluorobenzyl)-2-(3-(4-methoxyphenyl)-6-oxopyridazin-1(6H)-yl)acetamide] | > 100 | > 100 |
| COc1ccc(-c2ccc(=O)n(CC(=O)NC[C@@H]3CC4C=CC3C4)n2)cc1 (stereo partly drawn) [IIIb-39, N-(((2R)-bicyclo[2.2.1]hept-5-en-2-yl)methyl)-2-(3-(4-methoxyphenyl)-6-oxopyridazin-1(6H)-yl)acetamide] | > 100 | > 100 |

| Compound | IC50 [1] [µM] | IC50 [2] [µM] |
| --- | --- | --- |
| COc1ccc(-c2ccc(=O)n(CC(=O)NCc3ccccc3Cl)n2)cc1OC [IIIb-40, N-(2-chlorobenzyl)-2-(3-(3,4-dimethoxyphenyl)-6-oxopyridazin-1(6H)-yl)acetamide] | > 100 | > 100 |
| COc1ccc(-c2ccc(=O)n(CC(=O)NC3CCCCC3)n2)cc1 [IIIb-41, N-cyclohexyl-2-(3-(4-methoxyphenyl)-6-oxopyridazin-1(6H)-yl)acetamide] | > 100 | > 100 |
| CCOc1ccc(-c2ccc(=O)n(CCNC(=O)CC3CCCC3)n2)cc1 [IIIb-43, 2-cyclopentyl-N-(2-(3-(4-ethoxyphenyl)-6-oxopyridazin-1(6H)-yl)ethyl)acetamide] | > 100 | > 100 |
| CCc1ccc(-c2ccc(=O)n(CC(=O)Nc3ccc4c(c3)OCCO4)n2)cc1 [IIIb-44, N-(2,3-dihydrobenzo[b][1,4]dioxin-6-yl)-2-(3-(4-ethylphenyl)-6-oxopyridazin-1(6H)-yl)acetamide] | > 100 | > 100 |
| COc1ccc(-c2ccc(=O)n(CC(=O)NC3CCCC3)n2)cc1OC [IIIb-45, N-cyclopentyl-2-(3-(3,4-dimethoxyphenyl)-6-oxopyridazin-1(6H)-yl)acetamide] | > 100 | > 100 |
| COc1ccc(-c2ccc(=O)n(CC(=O)NCc3ccc(F)cc3)n2)c(F)c1 [IIIb-46, 2-(3-(2-fluoro-4-methoxyphenyl)-6-oxopyridazin-1(6H)-yl)-N-(4-fluorobenzyl)acetamide] | > 100 | > 100 |
| COCCNC(=O)Cn1nc(-c2ccc(OC)cc2)ccc1=O [IIIb-47, N-(2-methoxyethyl)-2-(3-(4-methoxyphenyl)-6-oxopyridazin-1(6H)-yl)acetamide] | > 100 | > 100 |
| COc1ccc(-c2ccc(=O)n(CC(=O)NCCC(C)C)n2)cc1 [IIIb-48, N-isopentyl-2-(3-(4-methoxyphenyl)-6-oxopyridazin-1(6H)-yl)acetamide] | > 100 | > 100 |
| COc1ccc(-c2ccc(=O)n(CC(=O)NCc3ccc(OC)c(OC)c3)n2)cc1 [IIIb-49, N-(3,4-dimethoxybenzyl)-2-(3-(4-methoxyphenyl)-6-oxopyridazin-1(6H)-yl)acetamide] | > 100 | > 100 |
| COc1ccc(-c2ccc(=O)n(CC(=O)NCc3ccc(F)cc3)n2)cc1 [IIIb-50, N-(4-fluorobenzyl)-2-(3-(4-methoxyphenyl)-6-oxopyridazin-1(6H)-yl)acetamide] | > 100 | > 100 |
| COc1ccc(-c2ccc(=O)n(CC(=O)NCCc3ccc(OC)c(OC)c3)n2)cc1 [IIIb-51, N-(3,4-dimethoxyphenethyl)-2-(3-(4-methoxyphenyl)-6-oxopyridazin-1(6H)-yl)acetamide] | > 100 | > 100 |
| COc1ccc(-c2ccc(=O)n(CC(=O)Nc3cccc(Cl)c3)n2)cc1 [IIIb-52, N-(3-chlorophenyl)-2-(3-(4-methoxyphenyl)-6-oxopyridazin-1(6H)-yl)acetamide] | > 100 | > 100 |
| COc1ccc(-c2ccc(=O)n(CC(=O)NCc3ccco3)n2)cc1 [IIIb-53, N-(furan-2-ylmethyl)-2-(3-(4-methoxyphenyl)-6-oxopyridazin-1(6H)-yl)acetamide] | > 100 | > 100 |
| COc1ccc(-c2ccc(=O)n(CC(=O)NCc3ccccc3)n2)c(F)c1 [IIIb-54, N-benzyl-2-(3-(2-fluoro-4-methoxyphenyl)-6-oxopyridazin-1(6H)-yl)acetamide] | > 100 | > 100 |
| COc1ccc(-c2ccc(=O)n(CC(=O)NCc3cccc(F)c3)n2)c(F)c1 [IIIb-55, 2-(3-(2-fluoro-4-methoxyphenyl)-6-oxopyridazin-1(6H)-yl)-N-(3-fluorobenzyl)acetamide] | > 100 | > 100 |
| COc1ccc(-c2ccc(=O)n(CC(=O)Nc3ccc(C(C)C)cc3)n2)cc1 [IIIb-56, N-(4-isopropylphenyl)-2-(3-(4-methoxyphenyl)-6-oxopyridazin-1(6H)-yl)acetamide] | > 100 | > 100 |
| COc1ccc(-c2ccc(=O)n(CC(=O)NCCC(C)C)n2)c(F)c1 [IIIb-57, 2-(3-(2-fluoro-4-methoxyphenyl)-6-oxopyridazin-1(6H)-yl)-N-isopentylacetamide] | > 100 | > 100 |
| COc1ccc(-c2ccc(=O)n(CC(=O)NC3CC3)n2)c(F)c1 [IIIb-58, N-cyclopropyl-2-(3-(2-fluoro-4-methoxyphenyl)-6-oxopyridazin-1(6H)-yl)acetamide] | > 100 | > 100 |
| COc1ccc(-c2ccc(=O)n(CC(=O)Nc3cccc(C)n3)n2)cc1 [IIIb-59, 2-(3-(4-methoxyphenyl)-6-oxopyridazin-1(6H)-yl)-N-(6-methylpyridin-2-yl)acetamide] | > 100 | > 100 |
